Results: ChEMBL document CHEMBL1201862, “PubChem BioAssay data set” (2004)
Active and inactive are the calls of the source.

What was measured:
[1] = target: Large T antigen (Simian virus 40, UniProt P03070); assay type: functional, Betapolyomavirus macacae;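 note: Confirmatory-stage PubChem screen for compounds that inhibit SV40 T antigen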
[2] = target: FAD-linked sulfhydryl oxidase ALR (Homo sapiens, UniProt P55789); assay: inhibitors of human ALR sulfhydryl oxidase, dose response, biochemical, H2O2 detection, luminescence, cherry-pick (AID 493248)
[3] = target: T1, Protein skinhead-1 (Caenorhabditis elegans, UniProt P34707); assay type: functional
T1 sequence (P34707 whole entry): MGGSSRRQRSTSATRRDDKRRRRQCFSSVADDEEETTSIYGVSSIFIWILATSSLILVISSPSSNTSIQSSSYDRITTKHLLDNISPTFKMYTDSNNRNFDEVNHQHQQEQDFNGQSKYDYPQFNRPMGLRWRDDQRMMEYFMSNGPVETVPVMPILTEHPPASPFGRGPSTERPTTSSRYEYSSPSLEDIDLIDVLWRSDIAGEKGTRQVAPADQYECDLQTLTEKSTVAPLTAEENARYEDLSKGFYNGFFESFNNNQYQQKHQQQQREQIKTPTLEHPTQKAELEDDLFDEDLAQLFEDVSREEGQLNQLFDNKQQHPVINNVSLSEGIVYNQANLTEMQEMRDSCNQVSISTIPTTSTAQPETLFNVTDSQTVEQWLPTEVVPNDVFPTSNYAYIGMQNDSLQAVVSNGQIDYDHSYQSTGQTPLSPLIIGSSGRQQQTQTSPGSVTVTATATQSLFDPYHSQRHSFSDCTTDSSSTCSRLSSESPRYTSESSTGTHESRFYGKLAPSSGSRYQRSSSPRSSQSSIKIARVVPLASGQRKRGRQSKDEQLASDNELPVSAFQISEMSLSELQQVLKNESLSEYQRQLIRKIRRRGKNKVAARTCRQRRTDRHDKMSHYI

[4] = Luminescence Cell-Based Dose Confirmation HTS to Identify Inhibitors of Platelet Dense Granule Release. [Related pubchem assays: 1663 (Primary HTS), 1678 (Summary of Project)]; assay type: functional
[5] = target: Luciferin 4-monooxygenase (Photinus pyralis, UniProt P08659); assay: firefly luciferase enzyme inhibitors, dose response, biochemical, luminescence (AID 1891)
[6] = target: T2, Rac GTPase-activating protein 1 (Homo sapiens, UniProt Q9H0H5); assay: MgcRacGAP GTPase-activating activity inhibitors, confirmation, biochemical, ADP Hunter fluorescence, primary and confirmatory (AID 624330); assay type: functional
T2 sequence (Q9H0H5 whole entry): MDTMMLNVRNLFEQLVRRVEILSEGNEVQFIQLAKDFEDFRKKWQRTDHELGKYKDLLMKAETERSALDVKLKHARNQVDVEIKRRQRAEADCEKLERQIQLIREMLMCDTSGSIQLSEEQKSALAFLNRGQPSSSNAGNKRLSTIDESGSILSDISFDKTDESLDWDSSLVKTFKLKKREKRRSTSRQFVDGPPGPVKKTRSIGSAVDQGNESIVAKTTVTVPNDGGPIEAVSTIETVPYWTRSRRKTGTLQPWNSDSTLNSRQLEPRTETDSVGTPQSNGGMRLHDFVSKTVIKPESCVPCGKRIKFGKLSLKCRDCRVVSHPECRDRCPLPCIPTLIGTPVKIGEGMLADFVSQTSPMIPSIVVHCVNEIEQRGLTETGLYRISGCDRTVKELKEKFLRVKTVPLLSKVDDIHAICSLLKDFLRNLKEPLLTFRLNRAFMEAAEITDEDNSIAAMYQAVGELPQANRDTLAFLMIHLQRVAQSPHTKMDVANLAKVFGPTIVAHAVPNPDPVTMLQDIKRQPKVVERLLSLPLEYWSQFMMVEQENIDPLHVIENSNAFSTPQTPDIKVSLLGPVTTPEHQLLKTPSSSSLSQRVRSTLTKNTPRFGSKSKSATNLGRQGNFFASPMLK

[7] = target: T3, Replicative DNA helicase DnaB (Mycobacterium tuberculosis, UniProt P9WMR3); assay: DnaB intein splicing inhibitors, dose response, biochemical, cell-free fluorescence (AID 449749); assay type: functional
T3 sequence (P9WMR3 whole entry): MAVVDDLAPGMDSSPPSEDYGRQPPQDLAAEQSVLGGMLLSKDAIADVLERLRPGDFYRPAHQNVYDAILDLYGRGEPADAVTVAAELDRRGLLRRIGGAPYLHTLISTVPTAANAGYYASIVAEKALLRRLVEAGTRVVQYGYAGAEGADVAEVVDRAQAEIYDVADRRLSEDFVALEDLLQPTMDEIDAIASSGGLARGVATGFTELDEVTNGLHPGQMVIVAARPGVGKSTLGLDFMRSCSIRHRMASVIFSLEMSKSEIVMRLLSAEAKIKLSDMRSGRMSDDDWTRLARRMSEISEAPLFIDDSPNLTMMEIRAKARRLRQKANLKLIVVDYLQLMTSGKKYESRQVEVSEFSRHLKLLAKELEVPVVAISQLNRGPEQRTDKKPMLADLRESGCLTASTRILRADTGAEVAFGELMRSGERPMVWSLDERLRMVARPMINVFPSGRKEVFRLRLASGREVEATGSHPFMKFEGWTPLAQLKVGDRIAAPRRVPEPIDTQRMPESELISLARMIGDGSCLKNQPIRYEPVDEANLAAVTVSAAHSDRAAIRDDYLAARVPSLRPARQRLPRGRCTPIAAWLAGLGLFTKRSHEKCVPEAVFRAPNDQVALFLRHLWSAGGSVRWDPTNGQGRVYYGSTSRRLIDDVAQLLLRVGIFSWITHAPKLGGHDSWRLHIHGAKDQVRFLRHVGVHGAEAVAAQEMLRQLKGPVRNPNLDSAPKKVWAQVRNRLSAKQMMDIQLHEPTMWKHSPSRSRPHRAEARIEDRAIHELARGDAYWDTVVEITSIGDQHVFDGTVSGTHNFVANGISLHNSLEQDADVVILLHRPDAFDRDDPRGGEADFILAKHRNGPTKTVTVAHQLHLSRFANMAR

[8] = target: T4, Protein RecA (Mycobacterium tuberculosis, UniProt P9WHJ3); assay: Fluorescence Cell-Free Homogeneous Dose Retest to Identify Inhibitors of RecA-Intein Splicing Activity. [Related pubchem assays (depositor defined):AID2097, AID2223, AID489010, AID492950]; assay type: functional
T4 sequence (P9WHJ3 whole entry): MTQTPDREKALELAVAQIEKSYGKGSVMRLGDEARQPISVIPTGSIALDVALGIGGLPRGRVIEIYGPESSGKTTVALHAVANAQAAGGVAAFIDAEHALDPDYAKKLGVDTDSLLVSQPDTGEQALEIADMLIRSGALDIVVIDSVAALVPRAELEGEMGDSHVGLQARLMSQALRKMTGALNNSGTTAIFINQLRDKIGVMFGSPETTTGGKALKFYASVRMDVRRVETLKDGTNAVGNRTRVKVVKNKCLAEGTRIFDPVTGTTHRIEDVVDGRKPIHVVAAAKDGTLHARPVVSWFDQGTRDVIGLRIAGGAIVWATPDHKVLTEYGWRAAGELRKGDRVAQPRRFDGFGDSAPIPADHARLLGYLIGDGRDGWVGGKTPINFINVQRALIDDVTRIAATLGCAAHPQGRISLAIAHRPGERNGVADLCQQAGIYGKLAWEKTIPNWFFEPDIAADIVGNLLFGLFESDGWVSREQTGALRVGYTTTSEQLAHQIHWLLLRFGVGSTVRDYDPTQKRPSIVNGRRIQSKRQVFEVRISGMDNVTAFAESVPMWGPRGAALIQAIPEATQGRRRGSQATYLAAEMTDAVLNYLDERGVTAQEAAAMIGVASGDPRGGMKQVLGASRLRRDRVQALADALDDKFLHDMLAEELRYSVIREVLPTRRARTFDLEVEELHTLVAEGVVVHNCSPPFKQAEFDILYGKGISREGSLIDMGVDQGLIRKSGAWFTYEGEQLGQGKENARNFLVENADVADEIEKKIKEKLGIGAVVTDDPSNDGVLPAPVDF

[9] = cytotoxicity toward NIH3T3 fibroblasts, dose response, counter-screen, cell-based, ATP luminescence, mouse fibroblasts (AID 2010); assay type: functional;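 note: cells exposed to compound for about 90 hours before reading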
[10] = inhibitors of intracellular T. cruzi replication, confirmation, NIH3T3 host cells, beta-gal luminescence (AID 2044); assay type: functional, cell-based;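 note: intracellular parasites grown in NIH/3T3 mouse fibroblasts as host cells; luminescent beta-galactosidase reporter signal from transgenic T. cruzi replicating inside host cells; inhibitors lower the luminescence signal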
[11] = Luminescence Cell-Based Dose Retest to Confirm Inhibitors of Cancer Stem Cells. [Related pubchem assays (depositor defined):AID2717, AID2721]; assay type: functional; settings: Homo sapiens

Sequence of Large T antigen (P03070 whole entry): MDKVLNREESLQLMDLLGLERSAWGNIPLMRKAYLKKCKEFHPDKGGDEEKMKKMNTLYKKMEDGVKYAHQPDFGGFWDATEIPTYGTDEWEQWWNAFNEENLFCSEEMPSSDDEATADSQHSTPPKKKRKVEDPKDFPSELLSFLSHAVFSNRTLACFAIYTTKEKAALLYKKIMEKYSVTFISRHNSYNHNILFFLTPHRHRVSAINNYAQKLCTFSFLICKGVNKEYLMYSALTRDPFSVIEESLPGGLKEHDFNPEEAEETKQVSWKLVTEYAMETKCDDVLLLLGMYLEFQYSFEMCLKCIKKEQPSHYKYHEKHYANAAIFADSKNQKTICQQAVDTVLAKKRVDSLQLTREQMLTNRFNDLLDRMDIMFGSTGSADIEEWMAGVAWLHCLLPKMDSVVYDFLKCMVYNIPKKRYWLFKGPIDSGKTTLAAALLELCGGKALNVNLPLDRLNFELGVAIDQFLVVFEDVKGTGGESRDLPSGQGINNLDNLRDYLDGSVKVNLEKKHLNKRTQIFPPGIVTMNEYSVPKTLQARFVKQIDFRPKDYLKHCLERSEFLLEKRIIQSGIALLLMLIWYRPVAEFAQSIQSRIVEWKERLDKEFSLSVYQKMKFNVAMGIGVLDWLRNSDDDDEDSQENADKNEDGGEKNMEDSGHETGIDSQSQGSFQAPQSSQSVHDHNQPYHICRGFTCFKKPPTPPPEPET
Sequence of Luciferin 4-monooxygenase (P08659 whole entry): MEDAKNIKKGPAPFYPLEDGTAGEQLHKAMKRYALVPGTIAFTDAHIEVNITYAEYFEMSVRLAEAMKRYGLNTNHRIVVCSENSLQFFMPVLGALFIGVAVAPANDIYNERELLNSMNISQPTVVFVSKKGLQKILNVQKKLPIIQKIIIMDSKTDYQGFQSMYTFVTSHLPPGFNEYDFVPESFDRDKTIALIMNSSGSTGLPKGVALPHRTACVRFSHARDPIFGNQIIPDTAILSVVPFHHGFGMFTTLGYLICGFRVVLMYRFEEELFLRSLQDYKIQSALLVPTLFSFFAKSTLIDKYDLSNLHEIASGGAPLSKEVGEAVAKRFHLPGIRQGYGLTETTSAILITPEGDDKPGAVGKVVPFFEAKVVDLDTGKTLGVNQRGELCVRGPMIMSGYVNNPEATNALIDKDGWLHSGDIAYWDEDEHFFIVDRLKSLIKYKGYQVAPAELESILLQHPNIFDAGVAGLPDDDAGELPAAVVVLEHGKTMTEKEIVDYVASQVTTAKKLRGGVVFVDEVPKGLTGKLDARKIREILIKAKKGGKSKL
Sequence of FAD-linked sulfhydryl oxidase ALR (P55789 whole entry): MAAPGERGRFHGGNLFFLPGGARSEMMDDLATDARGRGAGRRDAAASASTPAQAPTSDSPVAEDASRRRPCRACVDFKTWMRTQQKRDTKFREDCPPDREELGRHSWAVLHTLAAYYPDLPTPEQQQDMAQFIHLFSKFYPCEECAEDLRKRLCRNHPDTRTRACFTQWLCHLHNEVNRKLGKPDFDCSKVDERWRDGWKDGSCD

Compound: COc1cc(-c2csc(C)n2)ccc1O
- IC50 [1]: 4.9 µM (active)
- AC50 [2]: 13.9 µM (active)

Compound: O=C1NC[C@H](Cc2ccccc2)N(C[C@@H]2CCCN2C[C@H](Cc2ccc(O)cc2)N2C[C@H](Cc3ccccc3)N(CC3CCCCCC3)C(=O)C2=O)C1=O
- IC50 [3]: > 100 µM (inactive)

Compound: Cc1ccc2c(c1)COc1c3ccc(C(=O)N4CCOCC4)cc3nn1-2
- EC50 [4]: 20.9 µM (active)
- EC50 [5]: 29.6 µM (active)

Compound: CC(=O)c1cnc2c(-c3ccc(Cl)cc3)c(C)nn2c1C
- EC50 [4]: 78.7 µM (active)
- EC50 [5]: > 112 µM (not active)

Compound: Cc1onc(-c2c(F)cccc2Cl)c1C(=O)Nc1nc2ccccc2[nH]1
- IC50 [3]: > 100 µM (inactive)

Compound: COc1cccc(-n2cnnn2)c1
- IC50 [3]: > 100 µM (inactive)

Compound: COc1cc2c(cc1OC)[C@@H](NC(=O)CCc1ccccc1)[C@H](OCc1ccccc1)C2
- IC50 [3]: > 100 µM (inactive)

Compound: CCCCCN(C(=O)CCC(=O)OCC(=O)N1C(C)CCCC1C)c1c(N)n(CCCC)c(=O)[nH]c1=O (centres undefined)
- EC50 [4]: > 112 µM (not active)
- EC50 [5]: > 112 µM (not active)

Compound: CCOC(=O)/C(C#N)=C\c1ccc(O)c(OC)c1
- IC50 [6]: 48.9 µM (active)
- AC50 [7]: 27.2 µM (active)
- EC50 [8]: 9.54 µM (active)

Compound: COC(=O)C1C2CC3c4[nH]c5cc(OC)ccc5c4CCN3CC2CC(OC(=O)CC(C)=O)C1OC (centres undefined)
- IC50 [3]: > 100 µM (inactive)

Compound: COc1ccc(-c2nc(C[S+]([O-])CC(=O)NCc3ccco3)c(C)o2)cc1 (centres undefined)
- EC50 [4]: 27.9 µM (active)
- EC50 [5]: > 112 µM (not active)

Compound: Cc1cc(NC(=O)CSCC(=O)Nc2ccccc2N2CCCCC2)no1
- EC50 [4]: > 112 µM (not active)
- EC50 [5]: > 112 µM (not active)

Compound: Cc1cccc(CCNC(=O)c2cc(S(=O)(=O)N3CCCC3)cn2C)c1
- EC50 [4]: > 112 µM (not active)
- EC50 [5]: > 112 µM (not active)

Compound: C(/C=C/c1ccccn1)=C\c1ccccc1
- IC50 [3]: 50.8 µM (inactive)

Compound: CN(C)C(CNC(=O)c1cccc(S(=O)(=O)N2CCN(c3ccc(F)cc3)CC2)c1)c1ccccc1 (centres undefined)
- IC50 [3]: 63.4 µM (inactive)

Compound: Cc1ccc(-c2nc3ccc(Br)cn3c2Cc2ccccc2C(F)(F)F)cc1
- IC50 [3]: 75.5 µM (inactive)

Compound: CN(C)c1ccc(N/C=C/C(=O)c2ccc(F)cc2)cc1
- EC50 [9]: > 30 µM (not active)
- EC50 [4]: 1.5 µM (active)
- EC50 [10]: 2.32 µM (active)
- EC50 [5]: 0.816 µM (active)

Compound: O=C(/C=C/c1ccc([N+](=O)[O-])cc1)NCc1cccs1
- EC50 [4]: 57.2 µM (active)
- EC50 [5]: > 112 µM (not active)

Compound: Cc1ccc(S(=O)(=O)/N=C(\c2ccc(F)cc2)n2c(C)nc3ccccc32)cc1
- EC50 [4]: > 112 µM (not active)
- EC50 [5]: > 112 µM (not active)

Compound: CC(=O)Oc1cc(O)c2c(=O)c(OC(C)=O)c(-c3ccc(OC(C)=O)c(OC(C)=O)c3)oc2c1
- IC50 [1]: 14.4 µM (active)

Compound: CCOC(=O)CSc1nc2sc3c(c2c(=O)n1C1CCCCC1)CCN(C)C3
- EC50 [9]: > 30 µM (not active)
- AC50 [7]: > 380 µM (inactive)
- EC50 [8]: 15.2 µM (active)
- EC50 [10]: 1.43 µM (active)

Compound: Brc1ccc(-c2nc(-c3ccccc3)no2)o1
- IC50 [3]: 14.1 µM (active)

Compound: COc1cc(/C=C2\SC(NS(=O)(=O)c3ccc(C)cc3)=NC2=O)c([N+](=O)[O-])cc1OC
- IC50 [1]: 41.3 µM (active)

Compound: Cn1nc(C(=O)Nc2nc3ccc(S(C)(=O)=O)cc3s2)ccc1=O
- EC50 [4]: 7.45 µM (active)
- EC50 [5]: 3.18 µM (active)

Compound: COc1ccc(NCC(O)Cn2cnc3c2c(=O)n(C)c(=O)n3C)cc1 (centres undefined)
- IC50 [1]: 17.7 µM (active)

Compound: CN(C)c1ccc(NS(=O)(=O)c2cc3c4c(c2)CC(=O)N4CCC3)cc1
- IC50 [1]: 69.8 µM (active)

Compound: N#CC(C#N)=C(C#N)c1ccc(Nc2ccccc2)cc1
- AC50 [7]: > 380 µM (inactive)
- EC50 [8]: 2.49 µM (active)
- AC50 [11]: 2.54 µM (active)

Compound: COc1ccc(CC(=O)N/N=C(/C)CC(=O)N(C)c2ccccc2)cc1
- AC50 [7]: 29.3 µM (active)
- EC50 [8]: 9.23 µM (active)

Compound: COc1ccc(-c2[nH]nc3c2C(c2ccccc2OC(=O)N2CCOCC2)C(C#N)=C(N)O3)cc1 (centres undefined)
- AC50 [7]: 11.2 µM (active)
- EC50 [8]: 3.91 µM (active)

Compound: O=C(Nc1ccccc1Cl)c1cc(C2CCCN(C(=O)OCCF)C2)on1 (centres undefined)
- IC50 [3]: > 100 µM (inactive)

Compound: Cc1ccc2c(c1)c1nnc(SCC(=O)Nc3ccc(N(C)C)cc3)nc1n2CC(=O)O
- AC50 [7]: 92.5 µM (active)
- EC50 [8]: 0.483 µM (active)

Compound: CCOc1cc(/C=C2\C(=N)N3N=C(N4CCCCC4)SC3=NC2=O)ccc1OC(=O)c1ccco1
- AC50 [7]: > 380 µM (inactive)
- EC50 [8]: 18.6 µM (active)

Compound: Cc1ccc(Cl)c(OCC(=O)Nc2ccccc2C(=O)NC2CC2)c1
- EC50 [4]: > 112 µM (not active)
- EC50 [5]: > 112 µM (not active)

Compound: c1ccc(OCc2cc(-c3ccccc3)no2)cc1
- IC50 [3]: 68.7 µM (inactive)
